Test results reported in ChEMBL document CHEMBL1201862, “PubChem BioAssay data set” (2004).
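Following 48 hours of exposure in 96-well plates, responses at five concentrations were used to interpolate endpoints linearly. Abbreviation: GI50, concentration required for 50% inhibition of growth.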 Activity calls are given as the source filed them. Rule as the data show it: active = GI50 up to about 1.1 µM and inactive = higher.

Tests used:
Assay in all cases: NCI-60 cell line screen, 48 h
A549 = system: A549
COLO 205 = system: COLO 205
HCT-116 = system: HCT-116
IGROV-1 = system: IGROV-1
KM12 = system: KM12
M14 = system: M14
MOLT-4 = system: MOLT-4
NCI-H23 = system: NCI-H23
NCI-H460 = system: NCI-H460
OVCAR-3 = system: OVCAR-3
OVCAR-5 = system: OVCAR-5
RPMI-8226 = system: RPMI-8226
SF-268 = system: SF-268
SF-539 = system: SF-539
SK-MEL-2 = system: SK-MEL-2
SK-OV-3 = system: SK-OV-3
HCC 2998 = system: HCC 2998
OVCAR-4 = system: OVCAR-4

Measured: GI50

O=C(N/N=C1/C(=O)N(c2ccc(Cl)cc2Cl)C(=O)C(=O)C1c1nc2ccccc2o1)c1ccccc1O (centres undefined)
inactive: A549 33 µM | COLO 205 52.7 µM | HCT-116 37.2 µM | IGROV-1 39.9 µM | KM12 42.4 µM | M14 28.3 µM | MOLT-4 34.7 µM | NCI-H23 25.7 µM | NCI-H460 44.8 µM | OVCAR-3 21.8 µM | OVCAR-5 > 100 µM | RPMI-8226 43.4 µM | SF-268 41.2 µM | SF-539 29.4 µM | SK-MEL-2 41.3 µM | SK-OV-3 33 µM

COC(=O)[C@H]1CC(=O)C=C2CCCC21 (some centres undefined)
inactive: A549 > 100 µM | COLO 205 > 100 µM | HCC 2998 > 100 µM | HCT-116 > 100 µM | IGROV-1 > 100 µM | KM12 > 100 µM | M14 > 100 µM | MOLT-4 > 100 µM | NCI-H23 > 100 µM | NCI-H460 > 100 µM | OVCAR-3 > 100 µM | OVCAR-4 > 100 µM | RPMI-8226 > 100 µM | SF-268 > 100 µM | SF-539 > 100 µM | SK-MEL-2 > 100 µM | SK-OV-3 > 100 µM

O=C(N/C(=C\c1ccc(Br)cc1)c1nc2ccccc2s1)c1ccccc1
inactive: A549 61.4 µM | COLO 205 > 100 µM | HCT-116 53 µM | IGROV-1 75.2 µM | KM12 > 100 µM | M14 > 100 µM | MOLT-4 29.9 µM | NCI-H23 25.5 µM | NCI-H460 85.1 µM | OVCAR-3 > 100 µM | OVCAR-4 30.8 µM | OVCAR-5 > 100 µM | RPMI-8226 32.5 µM | SF-268 36.2 µM | SF-539 88.9 µM | SK-MEL-2 > 100 µM | SK-OV-3 > 100 µM

COc1ccccc1-c1cc(=O)c2ccccc2[nH]1
inactive: A549 54.3 µM | COLO 205 > 100 µM | HCC 2998 72.6 µM | HCT-116 > 100 µM | IGROV-1 99.8 µM | KM12 63.7 µM | M14 99.8 µM | MOLT-4 52 µM | NCI-H23 > 100 µM | NCI-H460 > 100 µM | OVCAR-3 > 100 µM | RPMI-8226 70 µM | SF-268 > 100 µM | SF-539 > 100 µM | SK-OV-3 73.6 µM

COC(=O)C1(C)C=C(Nc2ccccc2)C(=O)N1c1ccccc1 (centres undefined)
inactive: A549 > 100 µM | HCC 2998 > 100 µM | HCT-116 > 100 µM | IGROV-1 > 100 µM | KM12 > 100 µM | M14 > 100 µM | MOLT-4 > 100 µM | NCI-H23 > 100 µM | NCI-H460 > 100 µM | OVCAR-3 > 100 µM | OVCAR-4 > 100 µM | OVCAR-5 > 100 µM | RPMI-8226 > 100 µM | SF-268 > 100 µM | SF-539 > 100 µM | SK-MEL-2 > 100 µM | SK-OV-3 > 100 µM

O=C(CSC(=S)N1CCOCC1)Nc1nc2c(s1)CCCC2
inactive: A549 > 100 µM | COLO 205 > 100 µM | HCC 2998 24.1 µM | HCT-116 > 100 µM | IGROV-1 > 100 µM | KM12 > 100 µM | M14 > 100 µM | MOLT-4 > 100 µM | NCI-H23 97.7 µM | NCI-H460 > 100 µM | OVCAR-3 51.9 µM | OVCAR-4 > 100 µM | OVCAR-5 > 100 µM | RPMI-8226 > 100 µM | SF-268 > 100 µM | SF-539 > 100 µM | SK-MEL-2 > 100 µM | SK-OV-3 > 100 µM

C=CCC1(C)CCCCC1(O)C[S+]([O-])c1ccccc1 (centres undefined)
inactive: A549 > 100 µM | COLO 205 > 100 µM | HCC 2998 > 100 µM | HCT-116 > 100 µM | IGROV-1 > 100 µM | KM12 > 100 µM | M14 > 100 µM | MOLT-4 > 100 µM | NCI-H460 > 100 µM | OVCAR-3 > 100 µM | OVCAR-4 > 100 µM | OVCAR-5 > 100 µM | RPMI-8226 33.7 µM | SF-268 > 100 µM | SF-539 > 100 µM | SK-OV-3 > 100 µM

CCOc1ccc(N2C(=O)C3c4[nH]c5ccccc5c4C4CCC(C(C)(C)C)CC4C3C2=O)cc1 (centres undefined)
inactive: A549 62.4 µM | COLO 205 36.1 µM | HCC 2998 28.8 µM | HCT-116 49.2 µM | IGROV-1 > 100 µM | M14 > 100 µM | MOLT-4 > 100 µM | NCI-H23 82.8 µM | OVCAR-4 > 100 µM | RPMI-8226 > 100 µM | SF-268 > 100 µM | SF-539 > 100 µM | SK-OV-3 > 100 µM

C=C[C@@H](C)[C@]1(C(=O)OC)CCCC12OCCO2
inactive: A549 > 100 µM | COLO 205 > 100 µM | HCC 2998 > 100 µM | HCT-116 > 100 µM | IGROV-1 > 100 µM | KM12 > 100 µM | M14 > 100 µM | MOLT-4 > 100 µM | NCI-H460 > 100 µM | OVCAR-3 > 100 µM | OVCAR-4 > 100 µM | OVCAR-5 > 100 µM | RPMI-8226 72.9 µM | SF-268 > 100 µM | SF-539 > 100 µM | SK-MEL-2 > 100 µM | SK-OV-3 > 100 µM

N#CCCN(CCC#N)c1ccc(/C=N\c2nc(-c3ccccc3)cs2)cc1
inactive: A549 > 100 µM | COLO 205 > 100 µM | HCT-116 > 100 µM | IGROV-1 > 100 µM | M14 > 100 µM | MOLT-4 > 100 µM | NCI-H23 > 100 µM | NCI-H460 > 100 µM | OVCAR-3 > 100 µM | OVCAR-4 63.4 µM | OVCAR-5 > 100 µM | RPMI-8226 > 100 µM | SF-268 > 100 µM | SF-539 > 100 µM | SK-MEL-2 > 100 µM | SK-OV-3 > 100 µM

O=C1C[C@@H]2C(COC(=O)c3ccccc3)N(OCc3ccccc3)C[C@@H]2O1 (some centres undefined)
inactive: A549 > 100 µM | COLO 205 > 100 µM | HCC 2998 > 100 µM | HCT-116 > 100 µM | IGROV-1 > 100 µM | KM12 > 100 µM | M14 > 100 µM | MOLT-4 > 100 µM | NCI-H23 > 100 µM | NCI-H460 > 100 µM | OVCAR-3 > 100 µM | OVCAR-4 > 100 µM | OVCAR-5 > 100 µM | SF-268 > 100 µM | SF-539 > 100 µM | SK-MEL-2 > 100 µM | SK-OV-3 > 100 µM

CCCCCCCCCCCCC(SCCNC(=O)CCNC(=O)C(O)C(C)(C)COP(=O)(O)OP(=O)(O)OCC1OC(n2cnc3c(N)ncnc32)C(O)C1OP(=O)(O)O)C(=O)NCC(N)=O (centres undefined)
inactive: A549 > 100 µM | COLO 205 49.2 µM | HCC 2998 > 100 µM | HCT-116 41.3 µM | IGROV-1 > 100 µM | KM12 > 100 µM | M14 > 100 µM | NCI-H23 > 100 µM | NCI-H460 91.6 µM | OVCAR-3 > 100 µM | OVCAR-4 > 100 µM | OVCAR-5 > 100 µM | SF-268 > 100 µM | SF-539 52.2 µM | SK-MEL-2 > 100 µM | SK-OV-3 18.6 µM

O=S(=O)(O)SC/C=C\CSS(=O)(=O)O
inactive: A549 > 100 µM | COLO 205 > 100 µM | HCC 2998 > 100 µM | HCT-116 > 100 µM | IGROV-1 > 100 µM | KM12 > 100 µM | M14 > 100 µM | MOLT-4 35.8 µM | NCI-H23 > 100 µM | NCI-H460 42.2 µM | OVCAR-3 > 100 µM | OVCAR-4 > 100 µM | OVCAR-5 > 100 µM | RPMI-8226 > 100 µM | SF-268 > 100 µM | SF-539 > 100 µM | SK-OV-3 > 100 µM

O=[N+]([O-])c1cccc(Nc2nc(Cl)nc(Cl)n2)c1
inactive: A549 > 100 µM | COLO 205 > 100 µM | HCC 2998 > 100 µM | HCT-116 > 100 µM | KM12 > 100 µM | M14 > 100 µM | MOLT-4 > 100 µM | NCI-H23 > 100 µM | NCI-H460 > 100 µM | OVCAR-3 > 100 µM | OVCAR-4 34.4 µM | OVCAR-5 > 100 µM | RPMI-8226 > 100 µM | SF-268 > 100 µM | SF-539 > 100 µM | SK-MEL-2 > 100 µM | SK-OV-3 > 100 µM

O=C(NC1CCCCC1)NS(=O)(=O)c1ccc2c(c1)CCC2 [GLYHEXAMIDE]
inactive: A549 > 100 µM | COLO 205 > 100 µM | HCC 2998 > 100 µM | IGROV-1 > 100 µM | KM12 > 100 µM | M14 > 100 µM | MOLT-4 > 100 µM | NCI-H23 > 100 µM | OVCAR-3 > 100 µM | OVCAR-5 > 100 µM | RPMI-8226 > 100 µM | SF-268 > 100 µM | SF-539 > 100 µM | SK-MEL-2 > 100 µM | SK-OV-3 > 100 µM

Oc1ccc2c(c1)CC[N+]1=C2CCC2CCCC21 (centres undefined) [QUINDONIUM BROMIDE]
inactive: A549 > 100 µM | COLO 205 > 100 µM | HCC 2998 > 100 µM | HCT-116 > 100 µM | IGROV-1 > 100 µM | M14 > 100 µM | NCI-H23 > 100 µM | NCI-H460 > 100 µM | OVCAR-3 > 100 µM | OVCAR-4 > 100 µM | OVCAR-5 > 100 µM | SF-268 > 100 µM | SF-539 > 100 µM | SK-MEL-2 > 100 µM | SK-OV-3 > 100 µM
